Consider 3 molecules from publication PMC11289166 (Biochemistry, 2024).

“Also recorded” adds a separate entry of the source. Ends that are not written are not given here. * marks the point of attachment. MTSL = nitroxide spin label, CC1(C)C=C(CS*)C(C)(C)N1[O]

The target of experiment [1] is CRYΔ (residues 1-520) (Drosophila melanogaster, UniProt O77059). Format: binding. The following applies: fluorescence polarization; dark and light. For orientation: Fluorescence polarisation rises when a labelled molecule tumbles more slowly, as on binding a larger partner.
Chain of CRYΔ (residues 1-520) (O77059 1-520, stated change not applied): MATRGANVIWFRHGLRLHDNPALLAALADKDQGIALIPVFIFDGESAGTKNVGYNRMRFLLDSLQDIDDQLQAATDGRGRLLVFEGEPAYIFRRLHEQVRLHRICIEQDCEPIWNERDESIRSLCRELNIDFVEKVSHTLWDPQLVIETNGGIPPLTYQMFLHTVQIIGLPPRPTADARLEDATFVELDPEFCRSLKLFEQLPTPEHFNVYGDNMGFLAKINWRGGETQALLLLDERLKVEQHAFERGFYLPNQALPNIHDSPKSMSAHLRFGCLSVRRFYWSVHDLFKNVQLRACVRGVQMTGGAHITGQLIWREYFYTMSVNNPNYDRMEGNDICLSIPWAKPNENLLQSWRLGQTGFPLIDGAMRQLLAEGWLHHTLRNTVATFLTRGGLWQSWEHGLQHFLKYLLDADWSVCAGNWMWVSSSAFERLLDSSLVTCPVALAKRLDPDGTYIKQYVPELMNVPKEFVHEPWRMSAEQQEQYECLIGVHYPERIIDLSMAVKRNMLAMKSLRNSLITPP
The target in experiment [2] is CRY Full-Length (residues 1-539) (Drosophila melanogaster, UniProt O77059). Format: binding. The following applies: fluorescence polarization; dark and light.
Chain of CRY Full-Length (residues 1-539) (O77059 1-539): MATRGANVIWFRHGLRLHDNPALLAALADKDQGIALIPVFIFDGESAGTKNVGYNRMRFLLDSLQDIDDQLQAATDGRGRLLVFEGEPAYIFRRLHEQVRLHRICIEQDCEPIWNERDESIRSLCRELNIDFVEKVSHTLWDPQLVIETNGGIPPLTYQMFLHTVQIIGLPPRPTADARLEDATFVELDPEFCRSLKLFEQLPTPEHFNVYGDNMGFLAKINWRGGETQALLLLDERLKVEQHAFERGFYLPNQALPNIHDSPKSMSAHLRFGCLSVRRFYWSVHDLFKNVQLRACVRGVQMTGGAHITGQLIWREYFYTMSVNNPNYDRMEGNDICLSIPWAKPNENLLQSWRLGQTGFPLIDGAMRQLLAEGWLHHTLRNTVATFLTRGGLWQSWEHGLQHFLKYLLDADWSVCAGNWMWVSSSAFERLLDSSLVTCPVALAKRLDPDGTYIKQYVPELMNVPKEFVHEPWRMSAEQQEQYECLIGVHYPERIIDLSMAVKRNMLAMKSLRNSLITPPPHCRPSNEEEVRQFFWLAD
In experiment [3] the target is CRY Arg237Ala (Drosophila melanogaster, UniProt O77059, R237A). Format: binding. The following applies: fluorescence polarization; dark and light.
Chain of CRY Arg237Ala (O77059 1-539 R237A): as the sequence (O77059 1-539) above, with R237A counted along it
Experiment [4] has as its target T1, CRY Asn253Ala/Gln254Ala (Drosophila melanogaster, UniProt O77059, N253A/Q254A). Format: binding. The following applies: fluorescence polarization; dark and light.
Experiment [5] concerns the target T1, CRY Asn253Ala/Gln254Ala. To be noted: DEER; light state and dark-state proxy; compared with WT CRYΔ.
In experiment [6] the test system is CRYΔ. To be noted: ref [20]-[22]; cited from earlier work.

T1 sequence (O77059 1-539 N253A/Q254A): as the sequence (O77059 1-539) above, with N253A, Q254A counted along it

With MDWLLATPQLYSAFSSLGC [S-TIMN], the “binding to CRYΔ (in words)” value in experiment [1] was “bound S-TIMN in both dark and light, but with somewhat higher affinity in the light; also recorded: reasonably high affinity in the dark and even tighter affinity in the light; also recorded: more strongly in light than dark”. Also, the “binding to full-length CRY (in words)” value in experiment [2] is “bound to full-length CRY (residues 1-539) only in light with an affinity similar to that seen for CRYΔ in light”. Besides, in experiment [3], the “binding to Arg237Ala (in words)” value is listed as “no detectable binding of S-TIMN in either dark or light; also recorded: does not bind to CRY in either dark or light”. Also, in experiment [4], the “binding to Asn253Ala/Gln254Ala (in words)” value is “bound both in dark and light, with stronger binding and a larger fraction of binding in the dark”.
In the case of “S-TIMN-SL: S-TIMN spin-labeled with MTSL (MDWLLATPQLYSAFSSLGC(MTSL))”, the “interaction of spin-labeled S-TIMN with Asn253Ala/Gln254Ala (in words)” value in experiment [5] is reported as “considerably different than that observed for WT CRYΔ”.

B1: full-length TIM: Drosophila core oscillator protein Timeless (protein, UniProt P49021 1-1398, looked up)
chain: MDWLLATPQLYSAFSSLGCLEGDTYVVNPNALAILEEINYKLTYEDQTLRTFRRAIGFGQNVRSDLIPLLENAKDDAVLESVIRILVNLTVPVECLFSVDVMYRTDVGRHTIFELNKLLYTSKEAFTEARSTKSVVEYMKHILESDPKLSPHKCDQINNCLLLLRNILHIPETHAHCVMPMMQSMPHGISMQNTILWNLFIQSIDKLLLYLMTCPQRAFWGVTMVQLIALIYKDQHVSTLQKLLSLWFEASLSESSEDNESNTSPPKQGSGDSSPMLTSDPTSDSSDNGSNGRGMGGGMREGTAATLQEVSRKGQEYQNAMARVPADKPDGSEEASDMTGNDSEQPGSPEQSQPAGESMDDGDYEDQRHRQLNEHGEEDEDEDEVEEEEYLQLGPASEPLNLTQQPADKVNNTTNPTSSAPQGCLGNEPFKPPPPLPVRASTSAHAQMQKFNESSYASHVSAVKLGQKSPHAGQLQLTKGKCCPQKRECPSSQSELSDCGYGTQVENQESISTSSNDDDGPQGKPQHQKPPCNTKPRNKPRTIMSPMDKKELRRKKLVKRSKSSLINMKGLVQHTPTDDDISNLLKEFTVDFLLKGYSYLVEELHMQLLSNAKVPIDTSHFFWLVTYFLKFAAQLELDMEHIDTILTYDVLSYLTYEGVSLCEQLELNARQEGSDLKPYLRRMHLVVTAIREFLQAIDTYNKVTHLNEDDKAHLRQLQLQISEMSDLRCLFVLLLRRFNPSIHSKQYLQDLVVTNHILLLILDSSAKLGGCQTIRLSEHITQFATLEVMHYYGILLEDFNNNGEFVNDCIFTMMHHIGGDLGQIGVLFQPIILKTYSRIWEADYELCDDWSDLIEYVIHKFMNTPPKSPLTIPTTSLTEMTKEHNQEHTVCSWSQEEMDTLYWYYVQSKKNNDIVGKIVKLFSNNGNKLKTRISIIQQLLQQDIITLLEYDDLMKFEDAEYQRTLLTTPTSATTESGIEIKECAYGKPSDDVQILLDLIIKENKAQHLLWLQRILIECCFVKLTLRSGLKVPEGDHIMEPVAYHCICKQKSIPVVQWNNEQSTTMLYQPFVLLLHKLGIQLPADAGSIFARIPDYWTPETMYGLAKKLGPLDKLNLKFDASELEDATASSPSRYHHTGPRNSLSSVSSLDVDLGDTEELALIPEVDAAVEKAHAMASTPSPSEIFAVPKTKHCNSIIRYTPDPTPPVPNWLQLVMRSKCNHRTGPSGDPSDCIGSSSTTVDDEGFGKSISAATSQAASTSMSTVNPTTTLSLNMLNTFMGSHNENSSSSGCGGTVSSLSMVALMSTGAAGGGGNTSGLEMDVDASMKSSFERLEVNGSHFSRANNLDQEYSAMVASVYEKEKELNSDNVSLASDLTRMYVSDEDDRLERTEIRVPHYH
modifications: full-length
With B1, in experiment [6], the “binding of TIM to CRYΔ (in words)” value was “binds TIM in both dark and light”.
